According to patent US20110136858A1, “Preferred Combination Therapy” (priority 2009, published 2011):

Legend:
[1] = Effect of co-administration of triphenylethylenes on clopidogrel metabolism in vivo (CLP*-acetamide by LC-MS); parameters: species or system Sprague-Dawley rats; settings: rats, 0.1 to 10 mg/kg analog with 10 mg/kg clopidogrel
Protocol: Adult male Sprague-Dawley rats are dosed with various triphenylethylenes at different doses from 0.1 mg/kg to 10 mg/kg (spanning the likely doses such compounds would be used in man), or with vehicle only, and simultaneously dosed with 10 mg/kg clopidogrel, both by oral gavage. Blood samples are drawn through an in-dwelling jugular catheter at 0.5, 1, 2, 4, 8 and 24 hrs post-dose, and serum is prepared by conventional methods well known in the art.
The level of CLP*, the active metabolite of clopidogrel is then determined in each blood sample by LC-MS by collecting the blood samples in tubes containing the thiol alkylating agent iodeoacetamide. Iodoacetamide reacts with CLP* to generate a stable product which can be detected by LC-MS using standard methodology well known in the art. An authentic sample of the acetamide adduct of CLP* is used to quantify the level of CLP*-acetamide in the sample. […] The concentration of CLP*-acetamide adduct can therefore be assumed to be proportional to the concentration of CLP*. The pharmacokinetics of CLP*-acetamide are then compared under the different conditions, using standard pharmacokinetics models implemented with WinNonLin.

[2] = test system: TGF-beta1; experiment: Functional assay for TGF-beta Production Stimulator activity: suppression of smooth muscle cell proliferation reversible by neutralising anti-TGF-beta1 antibody; type: cell-based, rat; settings: for EC50: rat aortic smooth muscle cells in culture, 72 hrs, suppression of proliferation reversible by neutralising antibodies to TGF-beta1, from dose-response curves of FIG. 2, read-out: ED50 for the TGF-beta Production Stimulator activity
Excerpt: In order compare Droloxifene with other triphenylethylenes, we have exploited a functional assay for TGF-beta1 activity. Alternative approaches are less suitable for various reasons: it is not possible to directly measure TGF-beta protein production by cultured cells in response to triphenylethylenes because the TGF-beta that is produced remains associated with the cells or the extracellular matrix and is therefore not available for assay (for example, by ELISA) in the conditioned medium from the cultured cells. […] The specificity of such an assay is achieved by comparing the rate of proliferation of the smooth muscle cells in the presence or absence of a validated, highly specific neutralising antibody against TGF-beta (or TGF-beta1, as required).
The cells were prepared by enzyme dispersion of isolated rat aortae exactly as described previously (Grainger et al (1993) Biochem. J. 294(1):109-12 and the references therein). The cells were cultured (37° C.; 5% CO2) in DMEM+10% foetal calf serum (FCS), and subcultured every 4 days at 1:2 dilution, using 0.02% trypsin/EDTA (Gibco). Experiments were performed between the sixth and twentieth subculture.
For the experiments, the cells were subcultured into 12-well cluster plates, and allowed to grow for 24 hrs. […] The cells were then incubated for 72 hrs. All treatment conditions were established in triplicate. One triplicate of cells was counted (see below) at 0 h. All other wells were counted at 72 hrs.
The number of cells in each well was determined as follows: the well was washed three times with serum-free DMEM, aspirated and then incubated with 100 μl of trypsin/EDTA solution (Gibco) for 2 minutes at 37° C. Complete release of the cell monolayer was confirmed microscopically. The cell density in portion of this suspension was determined by counting using an Improved Neubauer hameocytometer, ensuring the suspension was uniform by gentle pipetting, prior to sampling. The cell density was converted to the absolute number of cells present in the well by multiplying the number of cells per μl by the total volume of suspension (100 μl). For each condition, the mean number of cells at the end of the experiment was calculated by meaning the number of cells in each well of triplicate.
The extent of proliferation of the cell culture under each condition was determined by subtracting the mean number of cells at time Oh from the mean number of cells under that condition at time 72 h. The amount of TGF-beta1 activity under each condition was determined by subtracting the inhibition of growth achieved in the presence of neutralising anti-TGF-beta1 antibody (AB-101-NA; R&D Systems) from the inhibition of growth achieved in the absence of antibody.

[3] = chronic Tamoxifen users; translated from the relative risk; cited from earlier work

CC/C(=C(/c1ccc(OCCN(C)C)cc1)c1cccc(O)c1)c1ccccc1 [Droloxifene, (E)-1-(4′-(2-dimethylaminoethoxy)phenyl)-1-(3-hydroxyphenyl)-2-phenylbut-1-ene]
effect on clopidogrel metabolism (in words) [1]: no effect | EC50 [2]: 3 µM

CC/C(=C(\c1ccc(I)cc1)c1ccc(OCCN2CCCC2)cc1)c1ccccc1 [Idoxifene]
EC50 [2]: 5 µM

O=C(c1ccc(OCCN2CCCCC2)cc1)c1c(-c2ccc(O)cc2)sc2cc(O)ccc12 [Raloxifene]
activity as Production Stimulator for TGF-beta1 (in words) ([2]; rat aortic smooth muscle cells): does not have measurable activity | EC50 [2]: > 100 µM

CC/C(=C(\c1ccccc1)c1ccc(OCCN(C)C)cc1)c1ccccc1 [Tamoxifen]
reduction in risk of death from myocardial infarction [3]: 33%

CN(C)CCOc1ccc(/C(=C(/CCCl)c2ccccc2)c2ccccc2)cc1 [Toremifene]
EC50 [2]: 10 µM
